Experimental data taken from patent US11629171B2, “Beta-hairpin peptidomimetics” (POLYPHOR AG, priority 2017, dated 2023).
Values after ≈ are worked out from the molar mass of the structure shown. Where a SMILES comes first, the peptide text is derived from it. Bridges are numbered along the chain shown (N, C = ends). Roman numbers before positions name the chains, in order. [ ]: non-standard residue; d: D form. Thr(ol) = C[C@@H](O)[C@H](N)CO; pGlu = O=C1CC[C@@H](C(=O)O)N1; Tle = CC(C)(C)[C@H](N)C(=O)O; Hiv = CC(C)[C@H](O)C(=O)O; dDab = NCC[C@@H](N)C(=O)O; hSer = N[C@@H](CCO)C(=O)O; Dab = NCC[C@H](N)C(=O)O; Dap = NC[C@H](N)C(=O)O

Key:
Type in all cases: cell-based
[1] = tested on: human red blood cells (hRBC); test: Hemolysis; settings: red cells of human, 1 h, 200
Procedure, shortened: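 Hemoglobin release from PBS-washed hRBC at 20% (v/v), incubated 1 h at 37° C with peptides at 200 μg/mL, is measured at 540 nm. Values are blank corrected and given as a fraction of Triton X-100 lysis × 100%.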

[2] = tested on: Escherichia coli ATCC 25922; settings: ATCC 25922
Procedure, shortened: (§1)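 MIC in μg/mL, read as no visible growth after 18-20 hours at 35° C. Peptides were serially diluted two-fold in MH-II broth plus P-80 (0.002% final, v/v) and inoculated at about 10^6 CFU/mL following the CLSI broth microdilution standard.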

[3] = tested on: Enterobacter cloacae 848840; settings: 848840
Procedure, shortened: as §1

[4] = tested on: Acinetobacter baumannii DSM 30008; settings: DSM 30008
Procedure, shortened: as §1

Escherichia coli 926415 = settings: 926415
Procedure, shortened: as §1

[5] = tested on: Klebsiella pneumoniae 968733; settings: 968733
Procedure, shortened: as §1

[6] = tested on: Klebsiella pneumoniae SSI #3010; settings: SSI #3010
Procedure, shortened: as §1

[7] = tested on: Acinetobacter baumannii 872842; settings: 872842
Procedure, shortened: as §1

[8] = tested on: Pseudomonas aeruginosa ATCC 27853; settings: ATCC 27853
Procedure, shortened: as §1

Structure (SMILES)	Hemolysis at 200 μg/mL [1] [%]	MIC [2] [µg/mL]	MIC [3] [µg/mL]	MIC [4] [µg/mL]	MIC (Escherichia coli 926415) [µg/mL]	MIC [5] [µg/mL]	MIC [6] [µg/mL]	MIC [7] [µg/mL]	MIC [8] [µg/mL]
CC(C)C[C@@H]1NC(=O)[C@@H](CC(C)C)NC(=O)[C@H](CCN)NC(=O)[C@@H](NC(=O)[C@H](CCN)NC(=O)[C@@H](NC(=O)[C@H](CCN)NC(=O)CC[C@@H]2NC(=O)[C@H](CCN)NC(=O)[C@H](Cc3ccc(O)cc3)NC(=O)[C@@H](NC(=O)[C@@H]3CCC(=O)N3)CSSC[C@@H](C(=O)N[C@H](CO)[C@@H](C)O)NC(=O)[C@H](C(C)(C)C)NC(=O)[C@H](CO)NC(=O)[C@H](Cc3c[nH]c4ccccc34)NC(=O)[C@H](CCO)NC(=O)[C@@H](CCN)NC2=O)[C@@H](C)O)CCNC(=O)[C@H]([C@@H](C)O)NC(=O)[C@H](CCN)NC(=O)[C@H](CCN)NC1=O [Ex. 77] (I: [pGlu]CY[Dab]E[dDab][hSer]WS[Tle]C[Thr(ol)] / II: [Dab]T[Dab][Dab][Dab][dL]L[Dab][Dab]T; disulfide I:2-I:11; amide I:5-II:N; lactam II:4-II:C)	<1	0.125 (≈ 0.0518 µM)	0.25 (≈ 0.104 µM)	0.125 (≈ 0.0518 µM)	0.25 (≈ 0.104 µM)	0.25 (≈ 0.104 µM)	0.125 (≈ 0.0518 µM)	0.25 (≈ 0.104 µM)	0.125 (≈ 0.0518 µM)
CC(C)C[C@@H]1NC(=O)[C@@H](CC(C)C)NC(=O)[C@H](CCN)NC(=O)[C@@H](NC(=O)[C@H](CCN)NC(=O)[C@@H](NC(=O)[C@H](CCN)NC(=O)CC[C@@H]2NC(=O)[C@H](CCN)NC(=O)[C@H](Cc3ccc(O)cc3)NC(=O)[C@@H](NC(=O)[C@@H](O)C(C)C)CSSC[C@@H](C(=O)N[C@H](CO)[C@@H](C)O)NC(=O)[C@H](C(C)C)NC(=O)[C@H](CO)NC(=O)[C@H](Cc3c[nH]c4ccccc34)NC(=O)[C@H](CCO)NC(=O)[C@@H](CCN)NC2=O)[C@@H](C)O)CCNC(=O)[C@H]([C@@H](C)O)NC(=O)[C@H](CCN)NC(=O)[C@H](CCN)NC1=O [Ex. 78] (I: H-[Hiv]CY[Dab]E[dDab][hSer]WSVC[Thr(ol)] / II: [Dab]T[Dab][Dab][Dab][dL]L[Dab][Dab]T; disulfide I:2-I:11; amide I:5-II:N; lactam II:4-II:C)	<1	0.03125 (≈ 0.0131 µM)	2 (≈ 0.838 µM)	0.0625 (≈ 0.0262 µM)	0.125 (≈ 0.0524 µM)	0.0625 (≈ 0.0262 µM)	0.25 (≈ 0.105 µM)	0.125 (≈ 0.0524 µM)	0.125 (≈ 0.0524 µM)
CC(C)C[C@@H]1NC(=O)[C@@H](CC(C)C)NC(=O)[C@H](CCN)NC(=O)[C@@H](NC(=O)[C@H](CCN)NC(=O)[C@@H](NC(=O)[C@H](CCN)NC(=O)CC[C@@H]2NC(=O)[C@H](CN)NC(=O)[C@H](Cc3ccc(O)cc3)NC(=O)[C@@H](NC(=O)[C@@H](O)C(C)C)CSSC[C@@H](C(=O)N[C@H](CO)[C@@H](C)O)NC(=O)[C@H](C(C)(C)C)NC(=O)[C@H](CO)NC(=O)[C@H](Cc3c[nH]c4ccccc34)NC(=O)[C@H](CCO)NC(=O)[C@@H](CCN)NC2=O)[C@@H](C)O)CCNC(=O)[C@H]([C@@H](C)O)NC(=O)[C@H](CCN)NC(=O)[C@H](CCN)NC1=O [Ex. 79] (I: H-[Hiv]CY[Dap]E[dDab][hSer]WS[Tle]C[Thr(ol)] / II: [Dab]T[Dab][Dab][Dab][dL]L[Dab][Dab]T; disulfide I:2-I:11; amide I:5-II:N; lactam II:4-II:C)	<1	0.0625 (≈ 0.0262 µM)	0.0625 (≈ 0.0262 µM)	0.03125 (≈ 0.0131 µM)	0.0625 (≈ 0.0262 µM)	0.0625 (≈ 0.0262 µM)	0.0625 (≈ 0.0262 µM)	0.0625 (≈ 0.0262 µM)	0.125 (≈ 0.0524 µM)
CC(C)C[C@@H]1NC(=O)[C@@H](CC(C)C)NC(=O)[C@H](CCN)NC(=O)[C@@H](NC(=O)[C@H](CCN)NC(=O)[C@@H](NC(=O)[C@H](CCN)NC(=O)CC[C@@H]2NC(=O)[C@H](CCN)NC(=O)[C@H](Cc3ccc(O)cc3)NC(=O)[C@@H](NC(=O)[C@@H](O)C(C)C)CSSC[C@@H](C(=O)N[C@H](CO)[C@@H](C)O)NC(=O)[C@H](C(C)(C)C)NC(=O)[C@H](CO)NC(=O)[C@H](Cc3c[nH]c4ccccc34)NC(=O)[C@H](CO)NC(=O)[C@@H](CCN)NC2=O)[C@@H](C)O)CCNC(=O)[C@H]([C@@H](C)O)NC(=O)[C@H](CCN)NC(=O)[C@H](CCN)NC1=O [Ex. 80] (I: H-[Hiv]CY[Dab]E[dDab]SWS[Tle]C[Thr(ol)] / II: [Dab]T[Dab][Dab][Dab][dL]L[Dab][Dab]T; disulfide I:2-I:11; amide I:5-II:N; lactam II:4-II:C)	<1	0.03125 (≈ 0.0131 µM)	0.125 (≈ 0.0524 µM)	0.125 (≈ 0.0524 µM)	0.0625 (≈ 0.0262 µM)	0.125 (≈ 0.0524 µM)	0.125 (≈ 0.0524 µM)	0.0625 (≈ 0.0262 µM)	0.125 (≈ 0.0524 µM)
CC(C)C[C@@H]1NC(=O)[C@@H](CC(C)C)NC(=O)[C@H](CCN)NC(=O)[C@@H](NC(=O)[C@H](CCN)NC(=O)[C@@H](NC(=O)[C@H](CCN)NC(=O)CC[C@@H]2NC(=O)[C@H](CCN)NC(=O)[C@H](Cc3ccc(O)cc3)NC(=O)[C@@H](NC(=O)[C@@H](O)C(C)C)CSSC[C@@H](C(=O)N[C@H](CO)[C@@H](C)O)NC(=O)[C@H](C(C)(C)C)NC(=O)[C@H](CCO)NC(=O)[C@H](Cc3c[nH]c4ccccc34)NC(=O)[C@H](CCO)NC(=O)[C@@H](CCN)NC2=O)[C@@H](C)O)CCNC(=O)[C@H]([C@@H](C)O)NC(=O)[C@H](CCN)NC(=O)[C@H](CCN)NC1=O [Ex. 81] (I: H-[Hiv]CY[Dab]E[dDab][hSer]W[hSer][Tle]C[Thr(ol)] / II: [Dab]T[Dab][Dab][Dab][dL]L[Dab][Dab]T; disulfide I:2-I:11; amide I:5-II:N; lactam II:4-II:C)	<1	0.0625 (≈ 0.0259 µM)	0.125 (≈ 0.0518 µM)	0.125 (≈ 0.0518 µM)	0.125 (≈ 0.0518 µM)	0.125 (≈ 0.0518 µM)	0.0625 (≈ 0.0259 µM)	0.25 (≈ 0.104 µM)	0.125 (≈ 0.0518 µM)
CC(C)C[C@@H]1NC(=O)[C@@H](CC(C)C)NC(=O)[C@H](CCN)NC(=O)[C@@H](NC(=O)[C@H](CCN)NC(=O)[C@@H](NC(=O)[C@H](CCN)NC(=O)CC[C@@H]2NC(=O)[C@H](CCN)NC(=O)[C@H](Cc3ccc(O)cc3)NC(=O)[C@@H](NC(=O)[C@@H](O)C(C)C)CSSC[C@@H](C(=O)N[C@H](CO)[C@@H](C)O)NC(=O)[C@H](C(C)(C)C)NC(=O)[C@H](CCO)NC(=O)[C@H](Cc3c[nH]c4ccccc34)NC(=O)[C@H]([C@@H](C)O)NC(=O)[C@@H](CCN)NC2=O)[C@@H](C)O)CCNC(=O)[C@H]([C@@H](C)O)NC(=O)[C@H](CCN)NC(=O)[C@H](CCN)NC1=O [Ex. 82] (I: H-[Hiv]CY[Dab]E[dDab]TW[hSer][Tle]C[Thr(ol)] / II: [Dab]T[Dab][Dab][Dab][dL]L[Dab][Dab]T; disulfide I:2-I:11; amide I:5-II:N; lactam II:4-II:C)	<1	0.0625 (≈ 0.0259 µM)	0.25 (≈ 0.104 µM)	0.125 (≈ 0.0518 µM)	0.5 (≈ 0.207 µM)	0.25 (≈ 0.104 µM)	0.0625 (≈ 0.0259 µM)	0.25 (≈ 0.104 µM)	0.25 (≈ 0.104 µM)
CC(C)C[C@@H]1NC(=O)[C@@H](CC(C)C)NC(=O)[C@H](CCN)NC(=O)[C@@H](NC(=O)[C@H](CCN)NC(=O)[C@@H](NC(=O)[C@H](CCN)NC(=O)CC[C@@H]2NC(=O)[C@H](CCN)NC(=O)[C@H](Cc3ccc(O)cc3)NC(=O)[C@@H](NC(=O)[C@@H](O)C(C)C)CSSC[C@@H](C(=O)N[C@H](CO)[C@@H](C)O)NC(=O)[C@H](C(C)(C)C)NC(=O)[C@H](CCO)NC(=O)[C@H](Cc3c[nH]c4ccccc34)NC(=O)[C@H](CO)NC(=O)[C@@H](CCN)NC2=O)[C@@H](C)O)CCNC(=O)[C@H]([C@@H](C)O)NC(=O)[C@H](CCN)NC(=O)[C@H](CCN)NC1=O [Ex. 83] (I: H-[Hiv]CY[Dab]E[dDab]SW[hSer][Tle]C[Thr(ol)] / II: [Dab]T[Dab][Dab][Dab][dL]L[Dab][Dab]T; disulfide I:2-I:11; amide I:5-II:N; lactam II:4-II:C)	<1	0.0625 (≈ 0.026 µM)	0.125 (≈ 0.0521 µM)	0.0625 (≈ 0.026 µM)	0.25 (≈ 0.104 µM)	0.25 (≈ 0.104 µM)	0.0625 (≈ 0.026 µM)	0.125 (≈ 0.0521 µM)	0.125 (≈ 0.0521 µM)
